# Measurements reported in patent publication US4447608A, “Anti-cancer quinazoline derivatives” (priority 1979, dated 1984).
# Entries after “also recorded” stand apart in the source; their conditions may differ. Where two headings read alike, the source gives them in different places.
# Experiments:
# L1210 cells [1] = assay: Growth inhibition of L1210 cells in suspension culture, 48 h count; assay type: cell-based; settings: Mus musculus
# Description: (§1) Cells were diluted to 10^5 /ml and additions (diluted in medium and sterilised in Millipore filtration) made prior to starting each incubation. Cell counts were performed after 24 and 48 hours using an improved Neubauer haemocytometer.
# L1210 cells [2] = assay: Reversal of toxicity to L1210 cells in culture by thymidine; assay type: cell-based, mouse
# Description: as §1, with “L1210 and L1210:R71 cells were grown in continuous suspension culture in RPMI 1640 medium containing 10% horse serum (Flow Laboratories, Irvine, Scotland; UK). Cells” for “Cells”
# L1210 cells [3] = assay: Reversal of toxicity to L1210 cells in culture by folinic acid; assay type: cell-based, mouse; settings: folinic acid up to 100 μM; FIG. 1: 20 μM CB 3717
# Description: as §1, with “L1210 and L1210:R71 cells were grown in continuous suspension culture in RPMI 1640 medium containing 10% horse serum (Flow Laboratories, Irvine, Scotland; UK). Cells” for “Cells”
# [4] = test system: transport of tritiated methotrexate into L1210 cells; assay: Inhibition of transport of tritiated methotrexate into L1210 cells; assay type: cell-based, mouse
# Description: (§2) The compounds of Example 2 were evaluated in vitro as inhibitors as TS and cell growth and in vivo against the L1210 tumour. Since methotrexate (MTX) resistance is an important problem in cancer therapy, the compounds of the present invention were also investigated with this in mind. The cross-resistance of the MTX resistant cell line L1210/R71, which is known to have elevated DHFR but normal MTX transport, was measured in culture, and the ability of the compounds of the invention to compete with labelled MTX or folic acid for transport into L1210 cells was also assessed.
# (§3) Transport studies were conducted on compound CB 3717 as representative of the invention compounds by incubating cells in the presence of a labelled substance, removing aliquots, separating and washing the cells by centrifugation and counting the pellet.
# [5] = test system: transport of tritiated folic acid into L1210 cells; assay: Inhibition of transport of tritiated folic acid into L1210 cells; assay type: cell-based, mouse
# Description: as §2, §3
# L1210 tumour = assay: Treatment of L1210 ascitic tumour-bearing mice, survival; assay type: in vivo, mice (female C57B1×DBA2 F1 hybrid); settings: for long term survivors (>120 days): FIG. 3
# Description: (§4) The L1210 tumour was carried routinely in DBA2 mice. For experiments 5×10^4 cells were implanted i.p. into female C57B1×DBA2 F1 hybrid mice 3 days prior to treatment, giving an established tumour of about 2×10^6 cells at the time of treatment.
# (Animals were injected with 20 mM NaHCO3 buffer 0.4 ml daily×5 days.
# As the injection solutions could only be neutralised to pH 8.5 while preserving solubility, the appropriate controls were injected with bicarbonate at pH 8.5. […] For comparative purposes further groups of animals were treated with various doses of methotrexate, given on the same schedule.
# [6] = Toxicity and body weight change in treated L1210 tumour-bearing mice; assay type: in vivo, mice (female C57B1×DBA2 F1 hybrid)
# Description: as §4
# L1210:R71 cells = assay: Growth inhibition of methotrexate-resistant L1210:R71 cells in suspension culture, 48 h count; assay type: cell-based, mouse; settings: relative to L1210
# Description: The compounds of Example 2 were evaluated in vitro as inhibitors as TS and cell growth and in vivo against the L1210 tumour. Since methotrexate (MTX) resistance is an important problem in cancer therapy, the compounds of the present invention were also investigated with this in mind.
# as §1, with “L1210 and L1210:R71 cells were grown in continuous suspension culture in RPMI 1640 medium containing 10% horse serum (Flow Laboratories, Irvine, Scotland; UK). Cells” for “Cells”
# [7] = majority of cell types; cited from earlier work
# [8] = 8 mg/kg i.p., daily × 5, 5 animals
# [9] = 16 mg/kg i.p., daily × 5, 5 animals, first 16 mg/kg line
# [10] = 16 mg/kg i.p., daily × 5, 5 animals, second 16 mg/kg line
# [11] = 32 mg/kg i.p., daily × 5, 5 animals
# [12] = 64 mg/kg i.p., daily × 5, 5 animals
# [13] = 80 mg/kg i.p., single dose, 5 animals
# [14] = 128 mg/kg i.p., daily × 5, 5 animals
# [15] = 160 mg/kg i.p., single dose, 5 animals
# [16] = methotrexate 3 mg/kg (optimal dose), daily×5, 10 animals
smiles,measurement,setting,value
"C#CCN(Cc1ccc2nc(N)nc(O)c2c1)c1ccc(C(=O)N[C@@H](CCC(=O)O)C(=O)O)cc1 [CB 3717, N-(4-(N-((2-amino-4-hydroxy-6-quinazolinyl)methyl)prop-2-ynylamino)benzoyl)-L-glutamic acid]",IC50,"L1210 cells [1]; L1210, 48 h, second results table, read-out: ID50 L1210 (Tissue culture)",6.5 to 8.5 µM
same,IC50,"L1210 cells [1]; L1210, Table 2, 48 hour count reduced to 50% of control, read-out: ID50 L1210",5 µM
same,Reversal by thymidine (in culture),"L1210 cells [2]; second results table, L1210",yes
same,reversal of toxicity by co-incubation with thymidine,"L1210 cells [2]; thymidine 10 μM, FIG. 1: 20 μM CB 3717",Reversal of the toxicity; also recorded: virtually complete protection
same,reversal of toxicity by folinic acid,L1210 cells [3],only partial reversal; also recorded: does not reverse the effect
same,apparent transport by the pathway used for methotrexate,[4],can apparently be transported by the pathway used for methotrexate
same,effect on transport of tritiated methotrexate,"[4]; 4 μM MTX, FIG. 2",inhibited; also recorded: dose-dependent reduction
same,apparent transport by the pathway for folic acid,[5],also by that for folic acid
same,effect on transport of tritiated folic acid,"[5]; 4 μM folic acid, FIG. 2",inhibited; also recorded: dose-dependent reduction
same,% Increase in mean survival time,L1210 tumour; [8],8%
same,Long term survivors (>200 days),L1210 tumour; [8],0
same,% Increase in mean survival time,L1210 tumour; [9],13%
same,Long term survivors (>200 days),L1210 tumour; [9],0
same,% Increase in mean survival time,L1210 tumour; [10],29%
same,Long term survivors (>200 days),L1210 tumour; [10],0
same,% Increase in mean survival time,L1210 tumour; [11],62%
same,Long term survivors (>200 days),L1210 tumour; [11],0
same,% Increase in mean survival time,L1210 tumour; [12],72%
same,Long term survivors (>200 days),L1210 tumour; [12],0
same,% Increase in mean survival time,L1210 tumour; [13],14%
same,Long term survivors (>200 days),L1210 tumour; [13],0
same,Long term survivors (>200 days),"L1210 tumour; 125 mg/kg i.p., daily × 5, 10 animals",9
same,% Increase in mean survival time,"L1210 tumour; 125 mg/kg i.p., daily × 5, 10 animals, see FIG. 3",> 1200%
same,long term survivors (>120 days),"L1210 tumour; 125 mg/kg, 5 daily doses",9 out of 10
same,% Increase in mean survival time,L1210 tumour; [14],> 1200%
same,Long term survivors (>200 days),L1210 tumour; [14],4
same,% Increase in mean survival time,L1210 tumour; [15],32%
same,Long term survivors (>200 days),L1210 tumour; [15],0
same,Long term survivors (>200 days),"L1210 tumour; 200 mg/kg i.p., daily × 5, 10 animals",9
same,% Increase in mean survival time,"L1210 tumour; 200 mg/kg i.p., daily × 5, 10 animals, see FIG. 3",> 1200%
same,long term survivors (>120 days),"L1210 tumour; 200 mg/kg, 5 daily doses",9 out of 10
same,increase in mean survival time with 5 daily dose schedule,"L1210 tumour; 5 daily doses, see Table 3",dose related
same,"difference in survival of CB 3717 and MTX treated animals, p (log rank test)","L1210 tumour; CB 3717 125 and 200 mg/kg vs MTX 3 mg/kg, daily×5",< 0.001
same,body weight change / signs of toxicity,"[6]; 5 daily doses, 125 and 200 mg/kg/day, groups of 10 mice, FIG. 4",did not lose a significant amount of weight or show other signs of toxicity
same,toxicity of single doses,[6]; single doses up to 160 mg/Kg i.p.,not toxic
"CN(Cc1cnc2nc(N)nc(N)c2n1)c1ccc(C(=O)N[C@@H](CCC(=O)O)C(=O)O)cc1 [methotrexate, reference compound]",resistance of L1210:R71 to MTX,L1210:R71 cells,about 600 fold
same,increase in median lifespan,L1210 tumour; [16],71%
same,long term survivors,L1210 tumour; [16],2/10
same,metabolic degradation,[7],does not undergo significant metabolic degradation
